Literature values in US20200315935A1, “TOPICALLY APPLICABLE CHEMICAL PEEL COMPOSITION” (L'OREAL, priority 2015, published 2020).
Read-outs that look alike come from different tables or passages of the source.

Tests used:
[1] = acute oral toxicity, mutagenicity, skin irritation, skin sensitization, and phototoxicity

Row | SMILES | pKA | adverse effects in basic toxicological tests ([1]; listed as Phenylethyl resorcinol) | adverse effects in basic toxicological tests ([1]; listed as phenylethyl resorcinol)
1 | CC(c1ccccc1)c1ccc(O)cc1O (stereo not shown) [Phenylethyl Resorcinol] | 9.77-10.77 | not shown adverse effects | not been shown to have adverse effects
2 | Oc1cccc(O)c1 [Resorcinol, reference compound] | 9.32-9.81 |  | 
